Test results: ChEMBL document CHEMBL1201862, “PubChem BioAssay data set” (2004)
Calls of active or inactive are those of the source.

Legend:
[1] = molecular target: Major prion protein (Homo sapiens, UniProt P04156); assay type: functional, cell-based
[2] = cells
[3] = molecular target: NAD-dependent protein deacylase sirtuin-5, mitochondrial (Homo sapiens, UniProt Q9NXA8); assay: sirtuin-5 deacylation blockers, concentration series – biochemical, fluorescence imaging, cherry-pick, set 5, dose response (AID 720591);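 further: desuccinylation of succinyl peptide AMC substrate read as fluorescence after trypsin release; potency of inhibitors that lower fluorescence and may act on trypsin instead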
[4] = molecular target: Kallikrein-7 (Homo sapiens, UniProt P49862); assay: Fluorescence Intensity-based biochemical primary high throughput dose response assay to identify activators of kallikrein-7 (K7) zymogen.
[5] = molecular target: RNA-editing ligase 1, mitochondrial (Trypanosoma brucei brucei, UniProt P86926); assay: inhibition of trypanosome RNA editing ligase – biochemical, fluorescence, Trypanosoma brucei, dose response (AID 1117295); assay type: functional
[6] = system: Vero; assay: mammalian cell viability reduction – secondary assay, cytotoxicity control for West Nile virus antiviral project, dose response (AID 1650); assay type: functional; details: Chlorocebus sabaeus
[7] = toxicity to human HepG2 hepatoma cells – cell-based, plate reader, dry powder samples, cytotoxicity control, dose response (AID 1159569); assay type: functional;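 further: inhibitor potency with signal falling toward the positive control level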
[8] = growth inhibition of yeast DHODH-expressing 3D7 parasites – SYBR Green, dry powder samples, dose response (AID 1159570); assay type: functional, cell-based;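 further: parasite growth measured after 72 hours of compound exposure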
[9] = Dd2 parasite growth inhibition in erythrocytes – SYBR Green, dry powder samples, set 9, dose response (AID 1159568); assay type: functional, cell-based
[10] = growth inhibition of PfATP4-mutant resistant parasites – NITD609-resistant line, SYBR Green, dry powder, dose response (AID 1159571); assay type: functional, cell-based;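 further: parasites synchronized at ring stage by sorbitol before testing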
[11] = Dd2 malaria parasite growth inhibition potency – SYBR Green, dry powder samples, dose response (AID 1159566); assay type: functional, cell-based;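 further: potency for growth inhibition with lower SYBR green DNA signal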
[12] = P. falciparum Dd2 growth inhibitors, dose response, SYBR Green, cherry-picked samples (AID 1159567); assay type: functional, cell-based
[13] = PAX5 cellular inhibition readout – cell-based, plate reader, dry powder samples, selectivity assay for PAX8 inhibitor project, dose response (AID 743047); assay type: functional;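 further: HEK293 cells carrying a Pax5 driven CD19 promoter luciferase reporter; potency of inhibitors that lower reporter luminescence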
[14] = molecular target: Paired box protein Pax-8 (Homo sapiens, UniProt Q06710); assay: PAX8 transcriptional activity inhibition in RMG-I – RMG-I cells, luciferase, cherry-pick, dose response (AID 687027); assay type: functional, cell-based;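 further: luciferase reporter driven by Pax8 target thyroperoxidase promoter measured by SteadyGlo luminescence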
[15] = COV362 cell viability loss – plate reader, dry powder, SA12, cytotoxicity control for PAX8 inhibitor project, dose response (AID 743144); assay type: functional, cell-based
[16] = inhibitors acting on PAX2 in cells – cell-based, plate reader, dry powder samples, selectivity assay for PAX8 inhibitor project, dose response (AID 743048); assay type: functional;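 further: HEK293 cells carrying a WT1 promoter luciferase reporter driven by expressed Pax2; potency is for inhibition of Pax2 driven reporter signal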
[17] = PAX8-dependent cell viability loss – plate reader, dry powder, dose response (AID 743049); assay type: functional, cell-based
[18] = OVCAR4 cell viability loss – plate reader, dry powder, SA11, cytotoxicity control for PAX8 inhibitor project, dose response (AID 743150); assay type: functional, cell-based; details: OVCAR-4
[19] = COV434 cell viability loss – plate reader, dry powder, SA7, cytotoxicity control for PAX8 inhibitor project, dose response (AID 743145); assay type: functional, cell-based
[20] = molecular target: T1, Voltage-gated N-type calcium channel alpha-1B subunit/Amyloid beta A4 precursor protein-binding family A member 1 (Homo sapiens, UniProt Q00975+Q02410); assay type: protein assay
[21] = molecular target: T2, Zinc finger protein mex-5 (Caenorhabditis elegans, UniProt Q9XUB2); assay: potency of MEX-5 RNA-binding blockers – biochemical, C. elegans, fluorescence polarization, dose response (AID 1960)
T2 sequence (Q9XUB2 whole entry): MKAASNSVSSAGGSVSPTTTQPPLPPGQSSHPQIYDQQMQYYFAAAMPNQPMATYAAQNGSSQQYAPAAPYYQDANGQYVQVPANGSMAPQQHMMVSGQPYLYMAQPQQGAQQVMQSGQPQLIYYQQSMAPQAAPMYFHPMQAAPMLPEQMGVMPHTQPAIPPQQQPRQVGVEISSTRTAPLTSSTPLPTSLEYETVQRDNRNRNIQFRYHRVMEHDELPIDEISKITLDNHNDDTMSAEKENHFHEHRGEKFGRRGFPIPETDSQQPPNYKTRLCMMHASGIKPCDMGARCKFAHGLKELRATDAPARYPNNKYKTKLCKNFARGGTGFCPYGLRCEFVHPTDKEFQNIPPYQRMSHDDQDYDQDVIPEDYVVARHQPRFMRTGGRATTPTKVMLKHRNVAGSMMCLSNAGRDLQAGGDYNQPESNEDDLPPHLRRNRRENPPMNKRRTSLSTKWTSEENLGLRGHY

[22] = molecular target: Albumin (Bos taurus, UniProt P02769); assay: Counterscreen for inhibitors of T-cell receptor (TCR)-CD3 interaction: Fluorescence-based biochemical high throughput dose response assay to identify inhibitors of T-cell receptor (TCR)-CD3 interaction using a TAMRA-labeled BSA probe.; assay type: functional
[23] = molecular target: T1, Voltage-gated N-type calcium channel alpha-1B subunit/Amyloid beta A4 precursor protein-binding family A member 1; assay type: protein assay; remark: listed apart in the source
[24] = OVCAR-3 cell viability loss – plate reader, dry powder samples, PAX8 inhibitor project, dose response (AID 743044); assay type: functional, cell-based
[25] = OVCAR8 cell viability loss – plate reader, dry powder samples, PAX8 project, dose response (AID 743197); assay type: functional, cell-based; details: OVCAR-8
[26] = IGROV1 cell killing – plate reader, dry powder samples, PAX8 inhibitor project, dose response (AID 743043); assay type: functional, cell-based; details: IGROV-1
[27] = general cell-killing toxicity readout – plate reader, dry powder samples, cytotoxicity control for PAX8 inhibitor project, dose response (AID 743021); assay type: functional, cell-based
[28] = toxicity toward immortalized ovarian surface epithelium – cell-based, plate reader, dry powder samples, cytotoxicity control for PAX8 inhibitor project, dose response (AID 743045); assay type: functional
[29] = blockade of melanocortin 4 receptor signaling – cell-based, plate reader, cherry pick, counter-screen for LGR2 antagonist project, dose response (AID 743444); assay type: functional;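 further: transfected HEK 293 cells stimulated with alpha-MSH peptide; potency of inhibitors of the alpha-MSH evoked signal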
[30] = A549 cell cytotoxicity, dose response, cytotoxicity control, plate reader, cherry-pick, antagonist series (AID 743412); assay type: functional, cell-based
[31] = toxicity toward HepG2 liver cells – cell-based, plate reader, cherry-pick, antagonist series, cytotoxicity control, dose response (AID 743416); assay type: functional
[32] = blockers of bursicon-stimulated LGR2 cAMP reporter – cell-based, HEK293, CRE-luciferase reporter, cherry pick, set 2, dose response (AID 743343); assay type: functional;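 further: transfected cells were stimulated with diluted bursicon conditioned medium after compound addition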
[33] = molecular target: Mitogen-activated protein kinase 10 (Homo sapiens, UniProt P53779); assay: Dose response biochemical screening assay for inhibitors of c-Jun N-Terminal Kinase 3 (JNK3). [Related pubchem assays: 746 ]
[34] = toxicity to human hepatoma HepG2 cells – cell-based, cherry-picked samples, cytotoxicity control, dose response (AID 1159577); assay type: functional

## CCOC(=O)CSc1nc(-c2ccccc2)nc2ccc(F)cc12
[1]
  IC50: 1.97 µM (active)
[2]
  IC50: > 138 µM (inactive)

## CCCCC[C@H]1CN(Cc2ccccc2)C(=O)[C@@H]1CC(=O)NCc1ccccc1
[3]
  AC50: 14.9 µM (active)

## CN1CCN(C(=O)c2cc3nc(-c4ccco4)cc(C(F)(F)F)n3n2)CC1
[4]
  EC50: 11.3 µM (inactive)

## Cc1ccc(C(C)C)c(OCCNCCc2ccccc2)c1
[5]
  IC50: > 96.6 µM (inactive)

## CCN(CC)CCNCC1C(=O)O[C@@H]2C[C@@]3(C)CCC[C@H](C)C3=C[C@H]12 (stereo partly specified)
[6]
  CC50: > 100 µM (active)

## COc1ccc2c3c(n(C)c2c1)[C@H](CO)N(Cc1ccc2c(c1)OCO2)CC31CN(C(=O)c2ccc3c(c2)OCO3)C1
[7]
  AC50: > 100 µM (inactive)
[8]
  AC50: 0.141 µM (active)
[9]
  AC50: 0.236 µM (active)
[10]
  AC50: 0.147 µM (active)
[11]
  AC50: 0.13 µM (active)
[12]
  AC50: 0.54 µM (active)

## CCCC#Cc1ccc([C@H]2[C@@H](CO)N(C(=O)C3CCCCC3)[C@H]2C#N)cc1
[8]
  AC50: 0.996 µM (active)
[13]
  AC50: 19.2 µM (active)
[14]
  AC50: 1.55 µM (active)
[15]
  AC50: 0.0864 nM (active)
[16]
  AC50: 26.7 µM (active)
[17]
  AC50: 12.2 µM (active)
[18]
  AC50: 22.8 µM (active)
[19]
  AC50: 0.000367 µM (active)
[10]
  AC50: 2.55 µM (active)
[11]
  AC50: 0.541 µM (active)
[12]
  AC50: 1.42 µM (active)

## COc1ccc(C(=O)Nc2nnc(CC(=O)N/N=C/c3ccc(O)cc3O)s2)cc1
[20]
  IC50: 19.8 µM (active)
[21]
  EC50: > 300 µM (not active)
[22]
  IC50: > 94.1 µM (inactive)
[23]
  IC50: 2.33 µM (active)

## COc1cccc(S(=O)(=O)N2C[C@@H]3N[C@H](C2)[C@@H]3c2ccc(/C=C/c3ccccc3)cc2)c1
[24]
  AC50: 40.8 µM (active)
[25]
  AC50: 48.9 µM (active)
[26]
  AC50: 58 µM (active)
[27]
  AC50: 33.7 µM (active)
[14]
  AC50: 9.43 µM (active)
[28]
  AC50: 36.1 µM (active)

## COc1ccc2nc(-c3ccccn3)ccc2c1
[29]
  AC50: 13.4 µM (active)
[30]
  AC50: > 52 µM (inactive)
[31]
  AC50: 29.3 µM (active)
[32]
  AC50: 9.32 µM (active)

## Cc1cc(C)c2nc(SC3CCOC3=O)cc(C)c2c1 (stereo unspecified)
[1]
  IC50: 3.66 µM (active)
[2]
  IC50: > 138 µM (inactive)

## O=C1NC(=O)c2c(NC(=O)C3CCCO3)cccc21 (stereo unspecified)
[33]
  IC50: 56.2 µM (not active)

## OC[C@@H]1Nc2ccc(C#Cc3ccc(F)cc3)cc2[C@H]2NCC[C@@H]12
[7]
  AC50: 32.6 µM (active)
[34]
  AC50: 25.1 µM (active)
[8]
  AC50: 1.15 µM (active)
[10]
  AC50: 1.42 µM (active)
[11]
  AC50: 0.822 µM (active)
[12]
  AC50: 2.36 µM (active)
